Results taken from article PMC6222425, “Novel 5′-Norcarbocyclic Derivatives of Bicyclic Pyrrolo- and Furano[2,3-d]Pyrimidine Nucleosides” (Molecules : A Journal of Synthetic Chemistry and Natural …, 2018).
Like-named read-outs stand apart in the source and are kept apart here.

How the values were obtained:
Type in all cases: cell-based
[1] = tested on: KB-3-1 (human epidermoid carcinoma) cells; assay: Cell viability analysis by MTT assay, KB-3-1; settings: for IC50: Homo sapiens, KB 3-1, 48 h, MTT, 48 h incubation, read-out: Antiproliferative activity, IC50, KB-3-1; for Selectivity index, KB-3-1: ratio of IC50 on normal hFF3 cells to IC50 of KB-3-1
Method: (§1) The target compounds were tested on different lines of tumor cells, HuTu-80 (human duodenal cancer), B16 (mouse melanoma), A549 (human lung adenocarcinoma), KB-3-1 (human squamous cell carcinoma), HeLa (human squamous cell carcinoma of the cervix), as well as on human noncancer cells hFF3.
(§2) Human KB-3-1 epidermoid carcinoma cell line, human HeLa cervical epithelioid carcinoma cell line, human HuTu-80 duodenal cancer cells, human A549 lung carcinoma epithelial cells, mouse B16 melanoma cell line and human hFF3 fibroblast cells were obtained from the Russian Cell Culture Collection (St. Petersburg, Russia) and were cultured in DMEM (hFF3 cells in IMDM) supplemented with 10% (v/v) heat-inactivated fetal bovine serum, penicillin (100 U mL^−1), streptomycin (100 µg mL^−1) and amphotericin ([…]). Cells were maintained in a humidified atmosphere of 5% CO2 at 37 °C.
(§3) All compounds were dissolved in dimethylsulfoxide (DMSO) and stock solutions (10 mmol L^−1) were stored at −20 °C.
(§4) Cells growing in the logarithmic phase were seeded in triplicate in 96-well plates at a density of 5 × 10^3 cells per well for HeLa and HuTu-80 cells, 7 × 10^3 cells per well for KB-3-1 and hFF3, 10 × 10^3 for A549 and 20 × 10^3 for B16. The plates were incubated at 37 °C in a humidified 5% CO2 atmosphere. Cells were allowed to adhere to the surface for 24 h and then tested compounds were added at different concentrations and incubation was continued for 48 h. Then [3-(4,5-dimethylthiazol-2-yl)-2,5-diphenyltetrazolium bromide] (MTT) solution (10 µL, 5 mg mL^−1) was added to each well and the incubation was continued for an additional 3 h. The dark blue formazan crystals formed within the healthy cells were solubilized with DMSO and the absorbance was measured using a Multiscan RC plate reader at 570 nm. The IC50 was determined as the compound concentration required to decrease the A570 to 50% compared to the control (no tested compounds, DMSO) and was determined by interpolation from dose-response curves.

[2] = tested on: HuTu-80 (human duodenal cancer) cells; assay: Cell viability analysis by MTT assay, HuTu-80; settings: for IC50: Homo sapiens, HuTu80, MTT, 48 h incubation, read-out: Antiproliferative activity, IC50, HuTu80; for Selectivity index, HuTu80: ratio of IC50 on normal hFF3 cells to IC50 of HuTu80
Method: as §1, §2, §3, §4

[3] = tested on: A549 (human lung adenocarcinoma) cells; assay: Cell viability analysis by MTT assay, A549; settings: for IC50: Homo sapiens, A549, MTT, 48 h incubation, read-out: Antiproliferative activity, IC50, A549; for Selectivity index, A549: ratio of IC50 on normal hFF3 cells to IC50 of A549
Method: as §1, §2, §3, §4

[4] = tested on: human noncancer cells hFF3 (fibroblasts); assay: Cell viability analysis by MTT assay, normal hFF3 cells; settings: for IC50: normal cells, MTT, 48 h incubation, read-out: Antiproliferative activity, IC50, hHFF3; for Toxic effect on normal hFF3 cells: concentrations up to 100 μM
Method: as §1, §2, §3, §4

[5] = tested on: HeLa (human cervical epithelioid carcinoma) cells; assay: Cell viability analysis by MTT assay, HeLa; settings: for IC50: Homo sapiens, HeLa, MTT, 48 h incubation, read-out: Antiproliferative activity, IC50, HeLa; for Selectivity index, HeLa: ratio of IC50 on normal hFF3 cells to IC50 of HeLa
Method: as §1, §2, §3, §4

[6] = tested on: B16 (mouse melanoma) cells; assay: Cell viability analysis by MTT assay, B16; settings: for IC50: MTT, 48 h incubation, read-out: Antiproliferative activity, IC50, B16; for Selectivity index, B16: ratio of IC50 on normal hFF3 cells to IC50 of B16
Method: as §1, §2, §3, §4

## CCCc1cc2cn(C3C=CC(O)C3)c(=O)nc2o1 (stereo not shown) [Compound 3a, 1-(4′-Hydroxy-2′-cyclopenten-1′-yl)-6-propyl-3H-furano[2,3-d]-pyrimidine-2-one]
[1]
  IC50: 40.1 ± 5.2 µM
  Selectivity index, KB-3-1: >2.5
[2]
  IC50: > 100 µM
[3]
  IC50: > 100 µM
[4]; Homo sapiens, HFF-3, 48 h
  IC50: > 100 µM
[4]
  Toxic effect on normal hFF3 cells: not toxic
[5]
  IC50: 63.4 ± 6.8 µM
  Selectivity index, HeLa: >1.6
[6]; Mus musculus, 48 h
  IC50: > 100 µM

## CCCCCCc1cc2cn(C3C=CC(O)C3)c(=O)nc2o1 (stereo not shown) [Compound 3c, 1-(4′-Hydroxy-2′-cyclopenten-1′-yl)-6-hexyl-3H-furano[2,3-d]-pyrimidine-2-one]
[1]
  IC50: 45.3 ± 5.1 µM
  Selectivity index, KB-3-1: >2.2
[2]
  IC50: 100 µM
[3]
  IC50: 50.3 ± 6.1 µM
  Selectivity index, A549: >1.9
[4]; Homo sapiens, HFF-3, 48 h
  IC50: > 100 µM
[4]
  Toxic effect on normal hFF3 cells: not toxic
[5]
  IC50: > 100 µM
[6]; Mus musculus, 48 h
  IC50: > 100 µM

## CCCCCCCCc1cc2cn(C3C=CC(O)C3)c(=O)nc2o1 (stereo not shown) [Compound 3d, 1-(4′-hydroxy-2′-cyclopenten-1′-yl)-6-octyl-3Hfurano[2,3-d]-pyrimidine-2-one]
[1]
  IC50: 47.3 ± 4.2 µM
  Selectivity index, KB-3-1: 1
[2]
  IC50: 46.3 ± 5.7 µM
  Selectivity index, HuTu80: 1
[3]
  IC50: 54.1 ± 6.1 µM
  Selectivity index, A549: 0.9
[4]; Homo sapiens, HFF-3, 48 h
  IC50: 48.2 ± 5.1 µM
[5]
  IC50: 40.6 ± 3.9 µM
  Selectivity index, HeLa: 1.2
[6]; Mus musculus, 48 h
  IC50: 46.2 ± 3.4 µM
[6]
  Selectivity index, B16: 1

## CCCCCCCCCCc1cc2cn(C3C=CC(O)C3)c(=O)nc2o1 (stereo not shown) [Compound 3e, 1-(4′-hydroxy-2′-cyclopenten-1′-yl)-6-decyl-3Hfurano[2,3-d]-pyrimidine-2-one]
[1]
  IC50: 11.2 ± 5.3 µM
  Selectivity index, KB-3-1: 1
[2]
  IC50: 7.3 ± 2.4 µM
  Selectivity index, HuTu80: 1.6
[3]
  IC50: 36.2 ± 11.3 µM
  Selectivity index, A549: 0.3
[4]; Homo sapiens, HFF-3, 48 h
  IC50: 11.6 ± 2.1 µM
[5]
  IC50: 4.5 ± 0.9 µM
  Selectivity index, HeLa: 2.6
[6]; Mus musculus, 48 h
  IC50: 21.3 ± 3.1 µM
[6]
  Selectivity index, B16: 0.5

## CCCCCCCCCCCCc1cc2cn(C3C=CC(O)C3)c(=O)nc2o1 (stereo not shown) [Compound 3f, 1-(4′-hydroxy-2′-cyclopenten-1′-yl)-6-dodecyl-3Hfurano[2,3-d]-pyrimidine-2-one]
[1]
  IC50: 10.2 ± 4.1 µM
  Selectivity index, KB-3-1: 1
[2]
  IC50: 7.1 ± 0.8 µM
  Selectivity index, HuTu80: 1.4
[3]
  IC50: 10.5 ± 1.9 µM
  Selectivity index, A549: 1
[4]; Homo sapiens, HFF-3, 48 h
  IC50: 10.2 ± 1.8 µM
[5]
  IC50: 2.5 ± 0.3 µM
  Selectivity index, HeLa: 4.1
[6]; Mus musculus, 48 h
  IC50: 4.5 ± 0.3 µM
[6]
  Selectivity index, B16: 2.3

## O=c1nc2oc(-c3ccccc3)cc2cn1C1C=CC(O)C1 (stereo not shown) [Compound 3g, 1-(4′-Hydroxy-2′-cyclopenten-1′-yl)-6-phenyl-3H-furano[2,3-d]-pyrimidine-2-one]
[1]
  IC50: 30.1 ± 4.1 µM
  Selectivity index, KB-3-1: >3.3
[2]
  IC50: > 100 µM
[3]
  IC50: > 100 µM
[4]; Homo sapiens, HFF-3, 48 h
  IC50: > 100 µM
[4]
  Toxic effect on normal hFF3 cells: not toxic
[5]
  IC50: 45.3 ± 5.1 µM
  Selectivity index, HeLa: >2.2
[6]; Mus musculus, 48 h
  IC50: > 100 µM

## CC(C)(C)c1ccc(-c2cc3cn(C4C=CC(O)C4)c(=O)nc3o2)cc1 (stereo not shown) [Compound 3h, 1-(4′-Hydroxy-2′-cyclopenten-1′-yl)-6-tertbutylphenyl-3H-furano[2,3-d]-pyrimidine-2-one]
[1]
  IC50: 1.7 ± 0.2 µM
  Selectivity index, KB-3-1: 3
[2]
  IC50: 9.9 ± 1.7 µM
  Selectivity index, HuTu80: 0.5
[3]
  IC50: 7.2 ± 0.8 µM
  Selectivity index, A549: 0.7
[4]; Homo sapiens, HFF-3, 48 h
  IC50: 5.1 ± 0.7 µM
[5]
  IC50: 2.3 ± 0.3 µM
  Selectivity index, HeLa: 2.2
[6]; Mus musculus, 48 h
  IC50: 10.1 ± 2.3 µM
[6]
  Selectivity index, B16: 0.5

## CCCCCc1cc2cn(C3C=CC(O)C3)c(=O)nc2[nH]1 (stereo not shown) [Compound 4b, 1-(4′-Hydroxy-2′-cyclopenten-1′-yl)-6-pentyl-3H-pyrrolo[2,3-d]-pyrimidine-2-one]
[1]
  IC50: 25.2 ± 3.4 µM
  Selectivity index, KB-3-1: >3.9
[2]
  IC50: 80.4 ± 0.9 µM
  Selectivity index, HuTu80: >1.2
[3]
  IC50: 45.3 ± 3.9 µM
  Selectivity index, A549: >2.2
[4]; Homo sapiens, HFF-3, 48 h
  IC50: > 100 µM
[5]
  IC50: 50.1 ± 4.7 µM
  Selectivity index, HeLa: >1.9
[6]; Mus musculus, 48 h
  IC50: > 100 µM

## CCCCCCc1cc2cn(C3C=CC(O)C3)c(=O)nc2[nH]1 (stereo not shown) [Compound 4c, 1-(4′-Hydroxy-2′-cyclopenten-1′-yl)-6-hexyl-3H-pyrrolo[2,3-d]-pyrimidine-2-one]
[1]
  IC50: 25.6 ± 2.9 µM
  Selectivity index, KB-3-1: >3.9
[2]
  IC50: 20.4 ± 3.9 µM
  Selectivity index, HuTu80: >4.9
[3]
  IC50: 35.2 ± 4.1 µM
  Selectivity index, A549: >2.8
[4]; Homo sapiens, HFF-3, 48 h
  IC50: > 100 µM
[5]
  IC50: 50.7 ± 6.2 µM
  Selectivity index, HeLa: >1.9
[6]; Mus musculus, 48 h
  IC50: > 100 µM

## CCCCCCCCc1cc2cn(C3C=CC(O)C3)c(=O)nc2[nH]1 (stereo not shown) [Compound 4d, 1-(4′-Hydroxy-2′-cyclopenten-1′-yl)-6-octyl-3H-pyrrolo[2,3-d]-pyrimidine-2-one]
[1]
  IC50: 25.4 ± 3.1 µM
  Selectivity index, KB-3-1: >3.9
[2]
  IC50: 30.2 ± 2.9 µM
  Selectivity index, HuTu80: >3.3
[3]
  IC50: 100 µM
[4]; Homo sapiens, HFF-3, 48 h
  IC50: > 100 µM
[5]
  IC50: 20.1 ± 1.9 µM
  Selectivity index, HeLa: >4.9
[6]; Mus musculus, 48 h
  IC50: > 100 µM

## CCCCCCCCCCc1cc2cn(C3C=CC(O)C3)c(=O)nc2[nH]1 (stereo not shown) [Compound 4e, 1-(4′-Hydroxy-2′-cyclopenten-1′-yl)-6-decyl-3H-pyrrolo[2,3-d]-pyrimidine-2-one]
[1]
  IC50: 18.4 ± 7.1 µM
  Selectivity index, KB-3-1: 3.4
[2]
  IC50: 23.4 ± 7.8 µM
  Selectivity index, HuTu80: 2.6
[3]
  IC50: 36.2 ± 6.2 µM
  Selectivity index, A549: 1.7
[4]; Homo sapiens, HFF-3, 48 h
  IC50: 63 µM
[4]
  IC50: 62.5 ± 8.3 µM
[5]
  IC50: 11 ± 2.1 µM
  Selectivity index, HeLa: 5.7
[6]
  IC50: 25.1 ± 2.4 µM
  Selectivity index, B16: 2.5
[6]; Mus musculus, 48 h
  IC50: 25 µM

## CCCCCCCCCCCCc1cc2cn(C3C=CC(O)C3)c(=O)nc2[nH]1 (stereo not shown) [Compound 4f, 1-(4′-Hydroxy-2′-cyclopenten-1′-yl)-6-dodecyl-3H-pyrrolo[2,3-d]-pyrimidine-2-one]
[1]
  IC50: 4.5 ± 0.9 µM
  Selectivity index, KB-3-1: 0.8
[2]
  IC50: 3.1 ± 0.4 µM
  Selectivity index, HuTu80: 1.1
[3]
  IC50: 4.5 ± 0.2 µM
  Selectivity index, A549: 0.8
[4]; Homo sapiens, HFF-3, 48 h
  IC50: 3.4 ± 0.7 µM
[5]
  IC50: 3.2 ± 0.4 µM
  Selectivity index, HeLa: 1
[6]; Mus musculus, 48 h
  IC50: 3.1 ± 0.3 µM
[6]
  Selectivity index, B16: 1.1
